Results on six compounds are retold here after publication PMC9516332 (Frontiers in Oncology, 2022).

Holding throughout (assay): Kinase panel profiling at 1 µmol/L (MSA or IMAP), percentage inhibition
Holding throughout (assay type): biochemical

In assay [1] the target is panel of 255 wild-type kinases (Homo sapiens, UniProt Q86Z02). Conditions: read-out: %-inhibition at 1 µmol/L, HIPK1.
Assay [2] deals with panel of 255 wild-type kinases (Homo sapiens, UniProt Q9H1R3). As to conditions: read-out: %-inhibition at 1 µmol/L, skMLCK.
In assay [3] the target is panel of 255 wild-type kinases (Homo sapiens, UniProt Q04912). As to conditions: read-out: %-inhibition at 1 µmol/L, RON.
The target of assay [4] is panel of 255 wild-type kinases (Homo sapiens, UniProt Q9UKE5). As to conditions: read-out: %-inhibition at 1 µmol/L, TNIK.
Assay [5] has as its target panel of 255 wild-type kinases (Homo sapiens, UniProt P78362). Conditions: read-out: %-inhibition at 1 µmol/L, SRPK2.
For assay [6], the target named is panel of 255 wild-type kinases (Homo sapiens, UniProt Q9UM73). As to conditions: read-out: %-inhibition ALK.
In assay [7] the target is T1, panel of 255 wild-type kinases (Homo sapiens, UniProt Q9HBY8).
T1 sequence (Q9HBY8 1-367): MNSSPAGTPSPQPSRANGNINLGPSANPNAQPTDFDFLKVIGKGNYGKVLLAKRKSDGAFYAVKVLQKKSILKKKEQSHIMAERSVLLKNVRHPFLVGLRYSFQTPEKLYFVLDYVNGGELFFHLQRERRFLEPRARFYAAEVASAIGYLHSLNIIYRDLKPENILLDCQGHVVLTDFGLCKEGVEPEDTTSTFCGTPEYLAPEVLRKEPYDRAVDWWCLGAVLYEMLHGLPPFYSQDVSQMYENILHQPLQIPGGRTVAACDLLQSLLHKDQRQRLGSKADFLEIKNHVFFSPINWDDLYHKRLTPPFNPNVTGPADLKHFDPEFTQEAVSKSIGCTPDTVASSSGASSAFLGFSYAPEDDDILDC
As to conditions: read-out: %-inhibition at 1 µmol/L, SGK2.

For assay [8], the target named is panel of 255 wild-type kinases (Homo sapiens, UniProt Q13882). Conditions: read-out: %-inhibition BRK.
Assay [9] has as its target panel of 255 wild-type kinases (Homo sapiens, UniProt Q13554). Conditions: read-out: %-inhibition CaMK2β.
For assay [10], the target named is T2, panel of 255 wild-type kinases (Homo sapiens, UniProt Q9BXA7).
T2 sequence (Q9BXA7 1-367): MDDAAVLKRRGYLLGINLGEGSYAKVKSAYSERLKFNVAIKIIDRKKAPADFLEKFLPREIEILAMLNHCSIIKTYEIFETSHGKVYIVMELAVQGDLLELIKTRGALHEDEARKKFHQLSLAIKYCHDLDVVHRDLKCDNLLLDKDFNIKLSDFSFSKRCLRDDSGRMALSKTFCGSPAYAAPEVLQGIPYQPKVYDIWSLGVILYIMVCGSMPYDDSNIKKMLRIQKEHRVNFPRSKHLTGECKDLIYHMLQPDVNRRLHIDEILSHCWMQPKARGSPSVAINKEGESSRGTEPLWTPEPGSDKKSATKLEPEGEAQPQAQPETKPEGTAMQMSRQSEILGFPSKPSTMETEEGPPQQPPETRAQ
As to conditions: read-out: %-inhibition at 1 µmol/L, TSSK1.

The target in assay [11] is panel of 255 wild-type kinases (Homo sapiens, UniProt P51957). As to conditions: read-out: %-inhibition, NEK4.
Assay [12] concerns the target panel of 255 wild-type kinases (Homo sapiens, UniProt Q7KZI7). As to conditions: read-out: %-inhibition, MARK2.
Assay [13] concerns the target panel of 255 wild-type kinases (Homo sapiens, UniProt P29317). As to conditions: read-out: %-inhibition at 1 µmol/L, EPHA2.
Assay [14] deals with panel of 255 wild-type kinases (Homo sapiens, UniProt P41240). As to conditions: read-out: %-inhibition at 1 µmol/L, CSK.
Assay [15] deals with panel of 255 wild-type kinases (Homo sapiens, UniProt Q15759). Conditions: read-out: %-inhibition, p38β.
The target in assay [16] is panel of 255 wild-type kinases (Homo sapiens, UniProt Q16288). Conditions: read-out: %-inhibition at 1 µmol/L, TRKC.
In assay [17] the target is panel of 255 wild-type kinases (Homo sapiens, UniProt O94804). As to conditions: read-out: %-inhibition at 1 µmol/L, LOK.
For assay [18], the target named is panel of 255 wild-type kinases (Homo sapiens, UniProt Q9HCP0). Conditions: read-out: %-inhibition at 1 µmol/L, CK1γ1.
The mark [19] stands for this setting: kinase HIPK1, 1 µmol/L single concentration.
[20] abbreviates: kinase skMLCK, 1 µmol/L single concentration.
[21] abbreviates: kinase RON, 1 µmol/L single concentration.
The mark [22] stands for this setting: kinase TNIK, 1 µmol/L single concentration.
The mark [23] stands for this setting: kinase SRPK2, 1 µmol/L single concentration.
Where [24] appears, read: ALK kinase assay, 1 µmol/L single concentration.
The mark [25] stands for this setting: kinase SGK2, 1 µmol/L single concentration.
[26] abbreviates: BRK kinase assay, 1 µmol/L single concentration.
Setting [27] is: CaMK2β kinase assay, 1 µmol/L single concentration.
[28] abbreviates: kinase TSSK1, 1 µmol/L single concentration.
Setting [29] is: NEK4, 1 µmol/L single concentration.
[30] abbreviates: MARK2, 1 µmol/L single concentration.
Setting [31] is: kinase EPHA2, 1 µmol/L single concentration.
Setting [32] is: kinase CSK, 1 µmol/L single concentration.
The mark [33] stands for this setting: p38β, 1 µmol/L single concentration.
The mark [34] stands for this setting: kinase TRKC, 1 µmol/L single concentration.
The mark [35] stands for this setting: kinase LOK, 1 µmol/L single concentration.
Where [36] appears, read: kinase CK1γ1, 1 µmol/L single concentration.

Where two headings read alike, the source gives them in different places.

As to `CNC(=O)c1ccc(-c2cnc3ncc(Cc4ccc5ncccc5c4)n3n2)cc1F` [capmatinib], the inhibition at 1 µM was -2.58% in assay [1]; -2% in assay [2]; 13% in assay [3]; 1.68% in assay [4]; -9% in assay [5]; 28% in assay [6]. Also, the inhibition at 1 µM was -5.54% in assay [7]; -0.67% in assay [8]; 0.692% in assay [9]; 3% in assay [10]; 2% in assay [11]; -8% in assay [12]. Moreover, the inhibition at 1 µM in assay [13] was -1%; in assay [14], -9%; in [15], -2.57%; in [16], 19%; in [17], 0.859%; in assay [18], -1.88%.

For `COC(=O)N[C@@H](C)CNc1nccc(-c2cn(C(C)C)nc2-c2cc(Cl)cc(NS(C)(=O)=O)c2F)n1` [encorafenib], the inhibition at 1 µM in assay [1] (setting [19]) is 5.6%; in assay [2] (setting [20]), -4.51%; in assay [3] (setting [21]), -1.42%; in assay [4] (setting [22]), 14%; in assay [5] (setting [23]), 2%; in assay [6] (setting [24]), 8%. Also, the inhibition at 1 µM in assay [7] (setting [25]) was 3.5%; in assay [8] (setting [26]), 25%; in assay [9] (setting [27]) it was 4.23%; in assay [10] (setting [28]) it was 3%; in [11] (setting [29]), 4.44%; in [12] (setting [30]), 5.68%. The inhibition at 1 µM is 9% in [13] (setting [31]); 1.58% in assay [14] (setting [32]); 56% in [15] (setting [33]); -0.54% in assay [16] (setting [34]); 1.24% in assay [17] (setting [35]); 26% in [18] (setting [36]).

For `Cc1cc(Nc2ncnc3ccc(NC4=NC(C)(C)CO4)cc23)ccc1Oc1ccn2ncnc2c1` [tucatinib], the inhibition at 1 µM was 11% in [1] (setting [19]); -1.5% in assay [2] (setting [20]); 2.23% in assay [3] (setting [21]); 4% in assay [4] (setting [22]); -0.581% in assay [5] (setting [23]); 32% in [6] (setting [24]). In addition, the inhibition at 1 µM in assay [7] (setting [25]) is -4%; in [8] (setting [26]) it was 8%; in assay [9] (setting [27]) it was 1.33%; in assay [10] (setting [28]), 2.58%; in [11] (setting [29]), 2.39%; in assay [12] (setting [30]) it was -12%. The inhibition at 1 µM was 2% in [13] (setting [31]); 6% in assay [14] (setting [32]); -3.42% in assay [15] (setting [33]); 2.53% in assay [16] (setting [34]); 6.43% in [17] (setting [35]); 11% in assay [18] (setting [36]).

In the case of `Cn1cnc2c(F)c(Nc3ccc(Br)cc3F)c(C(=O)NOCCO)cc21` [binimetinib], the inhibition at 1 µM in assay [1] (setting [19]) was 0.44%; in assay [2] (setting [20]) it was -5.4%; in [3] (setting [21]), -3.72%; in assay [4] (setting [22]) it was 0.137%; in [5] (setting [23]), -1.4%; in assay [6] (setting [24]), 6.37%. In addition, the inhibition at 1 µM in assay [7] (setting [25]) was -0.294%; in assay [8] (setting [26]), 1.08%; in [9] (setting [27]) it was 2.18%; in assay [10] (setting [28]), 0.849%; in assay [11] (setting [29]), -1.67%; in assay [12] (setting [30]), -6%. Further, the inhibition at 1 µM in [13] (setting [31]) is 9%; in assay [14] (setting [32]), -1.11%; in [15] (setting [33]), 0.0465%; in assay [16] (setting [34]) it was -0.843%; in assay [17] (setting [35]), 3.42%; in assay [18] (setting [36]), 1.68%.

For `COc1ccc(CN2C3CC2CN(c2ccc(-c4cc(OCC(C)(C)O)cn5ncc(C#N)c45)cn2)C3)cn1` [selpercatinib], the inhibition at 1 µM in assay [1] (setting [19]) was -0.334%; in [2] (setting [20]), -0.264%; in assay [3] (setting [21]), 49%; in assay [4] (setting [22]), 6%; in assay [5] (setting [23]), -0.197%; in [6] (setting [24]), 4%. Moreover, the inhibition at 1 µM in assay [7] (setting [25]) came to 10%; in [8] (setting [26]), 19%; in assay [9] (setting [27]), 1.27%; in assay [10] (setting [28]) it was 45%; in [11] (setting [29]), 0.858%; in [12] (setting [30]), 26%. Moreover, the inhibition at 1 µM was 49% in [13] (setting [31]); 1.77% in assay [14] (setting [32]); -1.85% in assay [15] (setting [33]); 10% in [16] (setting [34]); 40% in assay [17] (setting [35]); 12% in assay [18] (setting [36]).

For `CCN1C(=O)N(c2c(F)c(OC)cc(OC)c2F)Cc2cnc3[nH]c(CN4CCOCC4)cc3c21` [pemigatinib], the inhibition at 1 µM in assay [1] (setting [19]) was 1.47%; in assay [2] (setting [20]), 30%; in assay [3] (setting [21]), 4.48%; in assay [4] (setting [22]), 4%; in assay [5] (setting [23]), -6%; in assay [6] (setting [24]) it was -1.12%. For the same compound, the inhibition at 1 µM in assay [7] (setting [25]) turned out to be 8%; in [8] (setting [26]) it was 11%; in [9] (setting [27]), 9%; in assay [10] (setting [28]), 8%; in assay [11] (setting [29]), 6.33%; in assay [12] (setting [30]), 50%. Also, the inhibition at 1 µM is -3.69% in assay [13] (setting [31]); 2.28% in assay [14] (setting [32]); 6% in assay [15] (setting [33]); -0.168% in assay [16] (setting [34]); 4.7% in assay [17] (setting [35]); -5.5% in assay [18] (setting [36]).
